Columns and labels:
CYP2D6 = CYP2D6 (Homo sapiens (Human), UniProt P10635); test: Inhibition of enzyme activity of CYP2D6 in human liver microsome; assay type: in vitro ADME; conditions: dextromethorphan probe substrate, 30 minutes, read-out: IC50 of the inhibition effect on CYP2D6 enzyme
Procedure: The effect of the compounds of the present invention on the enzyme activity of CYP2D6 in human liver microsome was determined by the following experimental method.
(§1) • 1. Phosphate buffer solution (PBS); • 2. NADPH (Sigma N-1630); • 3. Human liver microsome (Corning Gentest); • 4. ABI QTrap 4000 liquid chromatograph/mass spectrometer (AB Sciex); • 5. Inertsil C8-3 column, 4.6×50 mm, 5 μm (Dikma Technologies Inc., USA); and • 6. CYP probe substrate (20 μM dextromethorphan, SIGMA Q0750) and positive control inhibitor (quinidine, SIGMA D9684). II. Experimental Procedures
(§2) 100 mM PBS buffer was formulated, which was then used to formulate 2.5 mg/ml human microsome solution and 5 mM NADPH solution. The 5× concentration of the compound working solution was diluted with PBS in gradients (150, 50, 15, 5, 1.5, 0.15, 0.015, 0 μM). The 5× concentration of quinidine working solution was diluted with PBS in gradients (150, 50, 15, 5, 1.5, 0.15, 0.015, 0 μM). Dextromethorphan working solution was diluted with PBS to a concentration of 20 μM.
(§3) 20 μl of 2.5 mg/ml microsome solution, 20 μl of 20 μM dextromethorphan working solution, 20 μl of MgCl2 solution and 20 μl of the compound working solution (150, 50, 15, 5, 1.5, 0.15, 0.015, 0 μM, different reaction systems for each concentration) were mixed well. For the positive control group, the compound was replaced with the same concentration of quinidine. The mixture together with 5 mM NADPH solution was pre-incubated at 37° C. for 5 minutes. After 5 minutes, 20 μl of NADPH was added to each well, the reaction was initiated, and the plate was incubated for 30 minutes. All the incubated samples were present in duplicate. After 30 minutes, 250 μl of acetonitrile containing internal standard (100 ng/ml camptothecin) was added to all samples, mixed well, shaken at 800 rpm for 10 minutes, and then centrifuged at 3700 rpm for 10 minutes. 80 μl of the supernatant was taken and analyzed by LC-MS/MS.
The data was calculated by Graphpad Prism to obtain the IC50 values of the inhibition effect of the present compounds on CYP2D6 enzyme, which are shown in Table 3.

human TLR8 = human TLR8 (Homo sapiens (Human), UniProt Q9NR97); test: Agonist activity on human TLR8 in HEK-Blue hTLR8 stably transfected cells; assay type: cell-based; conditions: 16 hours, OD 620 nm
Procedure: The agonist effect of the compounds of the present invention on hTLR8 expressed by the HEK-Blue™ hTLR8 stably transfected cells was determined by the following experimental method.
• 1. DMEM(Gibco, 10564-029); • 2. Fetal bovine serum (GIBCO, 10099); • 3. Trypan blue solution (Sigma, T8154-100 ML); • 4. Flexstation 3 multi-function microplate reader (Molecular Devices); • 5. HEK-Blue™ hTLR8 cell line (InvivoGen, hkb-hTLR8), or HEK-Blue™ hTLR7 cell line (InvivoGen, hkb-hTLR7); • 6. HEK-Blue detection reagent (InvivoGen, hb-det3); and • 7. Phosphate buffer solution (PBS) pH 7.4 (Shanghai Basalmedia Technologies Co., Ltd., B320). II. Experimental Procedures a. Determination of Agonist Activity on Human TLR8
A bag of HEK-Blue detection dry powder was dissolved in 50 ml of water free of endotoxin, and the solution was then placed in an incubator at 37° C. for 10 minutes followed by sterile filtration to prepare a HEK-Blue detection medium. The compound was firstly formulated into a 20 mM stock solution, then diluted with pure DMSO to a maximum concentration of 6×10^6 nM, and a total of 10 points were obtained by a 3-fold gradient dilution. The above formulated compound was firstly diluted 20-fold with the medium, then 20 μl of the diluted compound was added to each well.
The supernate was removed from the HEK-Blue™ hTLR8 cells, to which 2-5 ml of pre-warmed PBS was then added. The cells were placed in an incubator for 1-2 minutes, gently pipetted, and counted by trypan blue staining. The cells were re-suspended in the HEK-Blue detection medium to adjust the concentration to 2.2×10^5 cells/ml. 180 μl of cells was added to the above 96-well plate comprising 20 μl of the compound, and incubated at 37° C. for 16 hours.
The corresponding OD values were obtained by a microplate reader at a wavelength of 620 nm, and the EC50 values of the compounds were calculated by Graphpad Prism.

[1] = target: CYP3A4 (midazolam metabolite site) (Homo sapiens (Human), UniProt P08684); test: Inhibition of enzyme activity of midazolam metabolite site of CYP3A4 in human liver microsome; assay type: in vitro ADME; conditions: midazolam probe substrate, 30 minutes
Procedure: The effect of the compounds of the present invention on the enzyme activity of midazolam metabolite site of CYP3A4 in human liver microsomes was determined by the following experimental method.
as §1, with “(PBS) (Shanghai Basalmedia Technologies Co., Ltd., B320, similarly hereinafter);” for “(PBS);”, “(15” for “(20”, “midazolam,” for “dextromethorphan,”, “UC429)” for “Q0750)”, “(ketoconazole,” for “(quinidine,”, “K1003).” for “D9684).”
as §2, with “ketoconazole” for “quinidine”, “Midazolam” for “Dextromethorphan”, “15” for “20”
as §3, with “of 15” for “of 20”, “μM midazolam” for “μM dextromethorphan”, “of ketoconazole.” for “of quinidine.”
The data was calculated by Graphpad Prism to obtain the IC50 values of the compounds on the midazolam metabolite site of CYP3A4, which are shown in Table 2.

Chain of human TLR8 (Q9NR97 27-1041): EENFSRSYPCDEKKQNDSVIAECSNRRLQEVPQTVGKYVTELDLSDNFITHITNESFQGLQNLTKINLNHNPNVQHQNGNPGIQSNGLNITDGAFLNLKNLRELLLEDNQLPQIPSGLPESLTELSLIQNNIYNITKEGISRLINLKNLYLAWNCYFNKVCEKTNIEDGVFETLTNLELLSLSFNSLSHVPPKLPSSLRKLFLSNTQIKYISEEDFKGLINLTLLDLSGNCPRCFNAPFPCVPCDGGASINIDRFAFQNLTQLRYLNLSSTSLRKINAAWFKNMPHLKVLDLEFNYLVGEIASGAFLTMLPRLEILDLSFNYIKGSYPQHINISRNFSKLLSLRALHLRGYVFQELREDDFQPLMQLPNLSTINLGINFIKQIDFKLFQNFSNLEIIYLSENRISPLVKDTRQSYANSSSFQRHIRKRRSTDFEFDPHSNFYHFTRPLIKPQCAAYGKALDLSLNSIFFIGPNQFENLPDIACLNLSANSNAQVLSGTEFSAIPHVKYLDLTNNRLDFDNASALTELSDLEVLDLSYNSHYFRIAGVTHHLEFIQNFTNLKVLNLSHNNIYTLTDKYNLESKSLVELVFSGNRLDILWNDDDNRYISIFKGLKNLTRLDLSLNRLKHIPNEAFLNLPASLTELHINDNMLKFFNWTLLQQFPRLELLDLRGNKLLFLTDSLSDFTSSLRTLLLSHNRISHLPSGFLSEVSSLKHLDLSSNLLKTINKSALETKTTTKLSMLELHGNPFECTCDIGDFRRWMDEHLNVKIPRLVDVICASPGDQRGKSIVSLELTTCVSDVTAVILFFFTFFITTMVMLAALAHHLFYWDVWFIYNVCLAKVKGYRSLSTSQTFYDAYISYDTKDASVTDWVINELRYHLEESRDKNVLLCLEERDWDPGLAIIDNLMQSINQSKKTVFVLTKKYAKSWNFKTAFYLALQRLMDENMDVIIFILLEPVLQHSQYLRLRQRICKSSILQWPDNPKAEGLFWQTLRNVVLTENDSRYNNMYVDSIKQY
Chain of CYP3A4 (midazolam metabolite site) (P08684 whole entry): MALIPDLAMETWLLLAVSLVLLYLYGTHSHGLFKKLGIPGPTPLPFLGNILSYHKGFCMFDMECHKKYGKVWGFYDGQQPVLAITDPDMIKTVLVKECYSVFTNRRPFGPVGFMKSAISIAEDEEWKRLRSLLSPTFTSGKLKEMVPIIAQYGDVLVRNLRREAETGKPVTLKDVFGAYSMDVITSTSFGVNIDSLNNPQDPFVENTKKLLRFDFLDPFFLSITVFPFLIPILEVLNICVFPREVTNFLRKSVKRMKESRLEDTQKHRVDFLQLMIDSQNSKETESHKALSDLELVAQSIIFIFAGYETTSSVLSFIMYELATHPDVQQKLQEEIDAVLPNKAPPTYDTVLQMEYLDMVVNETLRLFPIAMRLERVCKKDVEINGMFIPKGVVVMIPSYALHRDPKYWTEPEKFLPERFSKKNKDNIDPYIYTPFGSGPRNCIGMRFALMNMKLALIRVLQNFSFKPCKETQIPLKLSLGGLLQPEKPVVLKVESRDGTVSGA
Chain of CYP2D6 (P10635 whole entry): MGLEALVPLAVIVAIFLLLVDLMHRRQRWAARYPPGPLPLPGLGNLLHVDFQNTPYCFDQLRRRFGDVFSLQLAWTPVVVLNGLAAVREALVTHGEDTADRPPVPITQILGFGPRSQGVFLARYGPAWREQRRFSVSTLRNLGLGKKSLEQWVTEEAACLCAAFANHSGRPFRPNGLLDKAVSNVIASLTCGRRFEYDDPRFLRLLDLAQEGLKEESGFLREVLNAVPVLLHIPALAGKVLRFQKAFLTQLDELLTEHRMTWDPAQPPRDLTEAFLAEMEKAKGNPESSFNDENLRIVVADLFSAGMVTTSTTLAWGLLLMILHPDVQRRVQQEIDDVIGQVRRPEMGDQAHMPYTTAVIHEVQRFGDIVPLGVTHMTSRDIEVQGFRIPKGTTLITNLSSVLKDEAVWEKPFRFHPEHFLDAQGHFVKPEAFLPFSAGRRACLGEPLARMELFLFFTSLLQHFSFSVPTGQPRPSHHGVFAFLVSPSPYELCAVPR

Row | SMILES | IC50 (CYP2D6) | EC50 (human TLR8) | Emax (human TLR8) | IC50 [1]
1 | CCCC[C@](C)(CO)Nc1nc(N)nc2cc(-c3ccc(CN4CCCC4)nc3)cnc12 [Example 2, (R)-2-((2-Amino-7-(6-(pyrrolidin-1-ylmethyl)pyridin-3-yl)pyrido[3,2-d]pyrimidin-4-yl)amino)-2-methylhexan-1-ol] | > 30 µM | 0.08 µM | 106% | 27 µM
2 | CCCC[C@](C)(CO)Nc1nc(N)nc2cc(-c3ccc(C4CCN(C)CC4)nc3)cnc12 [Example 4, (R)-2-((2-Amino-7-(6-(1-methylpiperidin-4-yl)pyridin-3-yl)pyrido[3,2-d]pyrimidin-4-yl)amino)-2-methylhexan-1-ol] | > 30 µM | 0.1 µM | 97% | > 30 µM
3 | CCCCC(C)(CO)Nc1nc(N)nc2cc(-c3ccc(CN4CCN(C)CC4)nc3)cnc12 (centres unmarked) [Example 5, 2-((2-Amino-7-(6-((4-methylpiperazin-1-yl)methyl)pyridin-3-yl)pyrido[3,2-d]pyrimidin-4-yl)amino)-2-methylhexan-1-ol] | > 30 µM | 0.27 µM | 110% | > 30 µM
4 | CCCC[C@](C)(CO)Nc1nc(N)nc2cc(-c3ccc(CN4CCN(C)CC4)nc3)cnc12 [Example 6, (R)-2-((2-Amino-7-(6-((4-methylpiperazin-1-yl)methyl)pyridin-3-yl)pyrido[3,2-d]pyrimidin-4-yl)amino)-2-methylhexan-1-ol] | > 30 µM | 0.1 µM | 107% | > 30 µM
5 | CCCC[C@](C)(CO)Nc1nc(N)nc2cc(-c3cnc(C4CCN(C)CC4)nc3)cnc12 [Example 8, (R)-2-((2-Amino-7-(2-(1-methylpiperidin-4-yl)pyrimidin-5-yl)pyrido[3,2-d]pyrimidin-4-yl)amino)-2-methylhexan-1-ol] | > 30 µM | 0.04 µM | 114% | > 30 µM

Source: US12162879B2, “Pyridopyrimidine derivative, preparation method therefor and medical use thereof” (Jiangsu Hengrui Medicine Co., Ltd., priority 2018, dated 2024)
